# Experiments:
# [1] = tested on: Fibulin-5 synthesis by NHDF; test: Fibulin-5 synthesis by NHDF (Western Blot method); type: cell-based, human; details: 10^−6% TGF-β1
# Procedure: NHDF were cultured to confluence. The cells were exposed or not exposed to preparations containing Tyr-Arg dipeptide. The cell layers were then lysed and analyzed using the Western Blot* method. Fibulin-5 synthesis was detected using a specific antibody. The resulting bands were quantified using appropriate image-analysis software. * Western Blot: the cell layers were blended in lysis buffer. The lysate was applied to a polyacrylamide gel for electrophoresis. After migration, the proteins were transferred to a nitrocellulose membrane and the proteins of interest detected using a specific antibody. Image analysis was used to quantify the two fibulin-5 bands obtained.
# [2] = tested on: Elastin/Tropoelastin by normal human fibroblasts; test: Release of Elastin/Tropoelastin by normal human fibroblasts (ELISA sandwich method); type: cell-based; details: TGF-β1 10-6% (positive control); vs control (placebo); n = 5
# Procedure: Normal human dermal fibroblasts (NHDF) were cultured to confluence. The cells were then exposed or not to preparations comprising the Tyr-Arg dipeptide at different concentrations. The culture supernatants were assayed to determine the quantity of Elastin/Tropoelastin using an ELISA sandwich method. TGF-β1 was used as the positive control.
# Fibrillin-1 by NHDF = test: Synthesis of Fibrillin-1 by NHDF (immunolabeling method); type: cell-based, human; details: TGF-β1 10^−6%, vs control
# Procedure: As indicated in the introduction, elastin formation is not sufficient. The presence of microfibril scaffolding is necessary. The induction of Fibrillin-1 synthesis was thus investigated.
# NHDF were cultured to confluence. The cells were then exposed or not exposed to Tyr-Arg dipeptide at different concentrations for 18 days. The cell layers were then labeled with an antibody to specifically detect Fibrillin-1 by immunofluorescence.
# Standardized photographs enabled imaging and quantification of Fibrillin-1 synthesis by image analysis (n=4).
# [3] = tested on: transglutaminase activity in NHDF; test: Transglutaminase activity in NHDF (Dansyl Cadaverine substrate, fluorescence); type: cell-based, human; details: TGF-β1 10^−6%, vs control, n=6
# Excerpt: NHDF were cultivated until confluence. The cells were exposed or not exposed to preparations containing or not Tyr-Arg dipeptide. The cell layers are then exposed to transglutaminase substrate (Dansyl Cadaverine, DC). The fluorescence obtained is proportional to transglutaminase activity. (n=6).
# [4] = tested on: LOXL-1 in reconstructed skin specimens (Full Thickness Skin PHENION); test: LOXL-1 (lysyl oxydase like 1) synthesis in reconstructed skin specimens (immunolabeling); type: cell-based; details: TGF-β1 used as positive control
# Procedure: LOXL synthesis was analyzed by preparations containing Tyr-Arg dipeptide in reconstructed skin specimens (Full Thickness Skin PHENION).
# LOXL synthesis after application of the dipeptide was evaluated by an immunohistochemical analysis.
# Preparations of Tyr-Arg dipeptide were applied to the surface of ? aged ? or not ? aged ? skins from the evening of D1 then every day. The skins were thereafter frozen for the immunohistochemical analysis.
# [5] = tested on: elastin/tropoelastin, NHDF; test: Synthesis of elastin/tropoelastin by normal human fibroblasts (immunolabeling, image analysis); type: cell-based; details: TGF-β1, vs control
# Procedure: Principle: normal human fibroblastes (NHDF) were cultured to confluence. The cells were then exposed or not to preparations containing Tyr-Arg peptide. The cellular layers are then marked with an antibody recognising specifically elastine.
substance,measurement,setting,value
TGF-β1 [reference compound],% change/Control (fibulin-5 bands),[1],+55% p < 0.01
same,Mean intensity (UA) of the fibulin-5 bands,[1]; control 18.6 +/− 4.3,28.8 +/− 8 UA
same,% change in the elastin/tropoelastin synthesis,[2],+1127%; p < 0.01
same,% change of Fibrillin-1 synthesis,Fibrillin-1 by NHDF,+760%; p < 0.01
same,% change of the transglutaminase activity (AFU/10^6 cells),[3],+26%; p < 0.01
same,Effect on synthesis of LOXL-1 (positive control),[4],expected effect stimulating the synthesis of LOXL-1
same,"% change (elastin/tropoelastin, immunolabeling)",[5],+87%; p < 0.01
